Laboratory results as given in US10633407B2, “14-membered ketolides and methods of their preparation and use” (President and Fellows of Harvard College, priority 2014, dated 2020).
Converted amounts (≈) assume the structure as drawn.

Tests used:
Assay in all cases: CLSI broth dilution MIC determination
Format in all cases: cell-based
E. coli ATCC 25922 = details: Escherichia coli, ATCC25922, E. coli ATCC 25922 (MP-4); read-out: MIC
From the text: (§1) MIC data was collected for the novel macrolides that this platform has produced against over 21 unique strains of B. subtilis, E. coli, S. aureus, S. pneumoniae, and H. influenzae, including several multidrug-resistant strains, with a special focus on macrolide resistant mechanisms (vide supra). Azithromycin (Azithro) and Solithromycin (Solithro) were included as a control macrolides in many cases. CLSI standard procedures for broth dilution MIC determination were used. […] These genotypes can be constitutive or inducible.

[1] = tested on: E. coli MP-532 clinical-cErmB; details: Escherichia coli
From the text: as §1

E. coli MP-541 clinical = details: Escherichia coli, MP541CLINICAL, read-out: MIC
From the text: as §1

[2] = tested on: E. coli MP-9 ATCC25922:tolC; details: Escherichia coli, ATCC25922
From the text: as §1

[3] = tested on: S. aureus (MRSA) MP-513 ST-228 cErm (Clinical-cErm); details: Staphylococcus aureus, read-out: MIC
From the text: as §1

S. aureus ATCC 29213 = details: Staphylococcus aureus, ATCC29213; S. aureus ATCC 29213 (MP-12); read-out: MIC
From the text: as §1

[4] = tested on: S. aureus MP-17 ATCCBAA-977 (BAA 977 iErm); details: Staphylococcus aureus; S. aureus MP-17, ATCCBAA-977, iErm; read-out: MIC
From the text: as §1

S. aureus MRSA: USA300 = details: Staphylococcus aureus; S. aureus MRSA: USA300 (MP-549, msr(a)); read-out: MIC
From the text: as §1

A. baumannii ATCC 19606 = details: Acinetobacter baumannii, ATCC19606; A. baumannii ATCC 19606 (MP-15); read-out: MIC
K. pneumoniae ATCC 10031 = details: Klebsiella pneumoniae, ATCC10031, K. pneumoniae ATCC 10031 (MP-14); read-out: MIC
P. aeruginosa ATCC 27853 = details: Pseudomonas aeruginosa, ATCC27853; P. aeruginosa ATCC 27853 (MP-3); read-out: MIC
P. aeruginosa MP-7 PAO1 = details: Pseudomonas aeruginosa, read-out: MIC
[5] = tested on: P. aeruginosa MP-8 PAO1:mex (mex-oprM-deletion); details: Pseudomonas aeruginosa, PAO1
[6] = tested on: K. pneumoniae MP-548 clinical; details: Klebsiella pneumoniae, MP548CLINICAL, read-out: MIC
[7] = tested on: K. pneumoniae MP-546 Clinical-MDR; details: Klebsiella pneumoniae, read-out: MIC
[8] = tested on: A. baumannii MP-577 Clinical-AZT low; details: Acinetobacter baumannii, read-out: MIC
[9] = tested on: A. baumannii MP-576 Clinical-MDR; details: Acinetobacter baumannii, read-out: MIC

`CC[C@H]1OC(=O)[C@@](C)(F)C(=O)[C@H](C)[C@@H](O[C@@H]2OC(C)CC(N(C)C)C2O)[C@](C)(OC)C[C@@H](C)C(=O)[C@H](C)[C@H]2N(CC#CCn3cc(-c4cccc(F)n4)nn3)C(=O)O[C@]12C` (some centres unmarked) [FSM-100627] gave an MIC (E. coli ATCC 25922) of 16 mg/L (≈ 18.9 µM), an MIC [1] of over 64 mg/L and an MIC (E. coli MP-541 clinical) of 8 mg/L (≈ 9.47 µM). The MIC [2] was 1 mg/L (≈ 1.18 µM), the MIC [3] was 32 mg/L (≈ 37.9 µM) and the MIC (S. aureus ATCC 29213) was 0.06 mg/L (≈ 0.071 µM). The MIC [4] was 0.06 mg/L (≈ 0.071 µM), the MIC (S. aureus MRSA: USA300) was 0.125 mg/L (≈ 0.148 µM) and the MIC (A. baumannii ATCC 19606) was 8 mg/L (≈ 9.47 µM). For the same compound, the MIC (K. pneumoniae ATCC 10031) was 2 mg/L (≈ 2.37 µM), the MIC (P. aeruginosa ATCC 27853) was 64 mg/L (≈ 75.7 µM) and the MIC (P. aeruginosa MP-7 PAO1) was 64 mg/L (≈ 75.7 µM). For the same compound, the MIC [5] was 4 mg/L (≈ 4.73 µM), the MIC [6] was 32 mg/L (≈ 37.9 µM) and the MIC [7] was 64 mg/L (≈ 75.7 µM). It also gave an MIC [8] of 32 mg/L (≈ 37.9 µM) and an MIC [9] of over 64 mg/L.

Work on `CC[C@H]1OC(=O)[C@@](C)(F)C(=O)[C@H](C)[C@@H](O[C@@H]2OC(C)CC(N(C)C)C2O)[C@](C)(OC)C[C@@H](C)C(=O)[C@H](C)[C@H]2N(CC#CCn3cc(-c4cnc(N)s4)nn3)C(=O)O[C@]12C` (some centres unmarked) [FSM-100633] yielded an MIC (E. coli ATCC 25922) of 8 mg/L (≈ 9.43 µM), an MIC [1] of over 64 mg/L and an MIC (E. coli MP-541 clinical) of 8 mg/L (≈ 9.43 µM). For the same compound, the MIC [2] was 1 mg/L (≈ 1.18 µM), the MIC [3] was 64 mg/L (≈ 75.5 µM) and the MIC (S. aureus ATCC 29213) was 0.125 mg/L (≈ 0.147 µM). The MIC [4] was 0.125 mg/L (≈ 0.147 µM), the MIC (S. aureus MRSA: USA300) was 0.125 mg/L (≈ 0.147 µM) and the MIC (A. baumannii ATCC 19606) was 4 mg/L (≈ 4.72 µM). For the same compound, the MIC (K. pneumoniae ATCC 10031) was 2 mg/L (≈ 2.36 µM), the MIC (P. aeruginosa ATCC 27853) was 32 mg/L (≈ 37.7 µM) and the MIC (P. aeruginosa MP-7 PAO1) was 32 mg/L (≈ 37.7 µM). The MIC [5] was 4 mg/L (≈ 4.72 µM), the MIC [6] was 32 mg/L (≈ 37.7 µM) and the MIC [7] was 64 mg/L (≈ 75.5 µM). The MIC [8] was 16 mg/L (≈ 18.9 µM) and the MIC [9] was over 64 mg/L.

`CC[C@H]1OC(=O)[C@H](C)C(=O)[C@H](C)[C@@H](O[C@@H]2OC(C)CC(N(C)C)C2O)[C@](C)(OC)C[C@@H](C)C(=O)[C@H](C)[C@H]2N(CC#CCn3cc(-c4cccnn4)nn3)C(=O)O[C@]12C` (some centres unmarked) [FSM-130216] showed an MIC (E. coli ATCC 25922) of 32 mg/L (≈ 39.5 µM), an MIC [1] of over 64 mg/L and an MIC (E. coli MP-541 clinical) of 64 mg/L (≈ 79 µM). The MIC [2] was 4 mg/L (≈ 4.94 µM), the MIC [3] was over 64 mg/L and the MIC (S. aureus ATCC 29213) was 0.25 mg/L (≈ 0.309 µM). It also gave an MIC [4] of 0.25 mg/L (≈ 0.309 µM), an MIC (S. aureus MRSA: USA300) of 0.5 mg/L (≈ 0.617 µM) and an MIC (A. baumannii ATCC 19606) of 16 mg/L (≈ 19.8 µM). The MIC (K. pneumoniae ATCC 10031) was 4 mg/L (≈ 4.94 µM), the MIC (P. aeruginosa ATCC 27853) was over 64 mg/L and the MIC (P. aeruginosa MP-7 PAO1) was over 64 mg/L. For the same compound, the MIC [5] was 16 mg/L (≈ 19.8 µM), the MIC [6] was over 64 mg/L and the MIC [7] was over 64 mg/L. The MIC [8] was 64 mg/L (≈ 79 µM) and the MIC [9] was over 64 mg/L.

`CC[C@H]1OC(=O)[C@@](C)(F)C(=O)[C@H](C)[C@@H](O[C@@H]2OC(C)CC(N(C)C)C2O)[C@](C)(OC)C[C@@H](C)C(=O)[C@H](C)[C@H]2N(CC#CCn3cc(-c4cccnn4)nn3)C(=O)O[C@]12C` (some centres unmarked) [FSM-130217] showed an MIC (E. coli ATCC 25922) of 32 mg/L (≈ 38.6 µM), an MIC [1] of over 64 mg/L and an MIC (E. coli MP-541 clinical) of 32 mg/L (≈ 38.6 µM). It also gave an MIC [2] of 4 mg/L (≈ 4.83 µM), an MIC [3] of over 64 mg/L and an MIC (S. aureus ATCC 29213) of 0.25 mg/L (≈ 0.302 µM). For the same compound, the MIC [4] was 0.25 mg/L (≈ 0.302 µM), the MIC (S. aureus MRSA: USA300) was 0.25 mg/L (≈ 0.302 µM) and the MIC (A. baumannii ATCC 19606) was 16 mg/L (≈ 19.3 µM). For the same compound, the MIC (K. pneumoniae ATCC 10031) was 8 mg/L (≈ 9.66 µM), the MIC (P. aeruginosa ATCC 27853) was over 64 mg/L and the MIC (P. aeruginosa MP-7 PAO1) was over 64 mg/L. For the same compound, the MIC [5] was 16 mg/L (≈ 19.3 µM), the MIC [6] was over 64 mg/L and the MIC [7] was over 64 mg/L. For the same compound, the MIC [8] was 32 mg/L (≈ 38.6 µM) and the MIC [9] was over 64 mg/L.

`CC[C@H]1OC(=O)[C@H](C)C(=O)[C@H](C)[C@@H](O[C@@H]2OC(C)CC(N(C)C)C2O)[C@](C)(OC)C[C@@H](C)C(=O)[C@H](C)[C@H]2N(NCCCn3nc4ccccc4n3)C(=O)O[C@]12C` (some centres unmarked) [FSM-140132] showed an MIC (E. coli ATCC 25922) of 16 mg/L (≈ 20.3 µM), an MIC [1] of over 64 mg/L and an MIC (E. coli MP-541 clinical) of 32 mg/L (≈ 40.7 µM). It also gave an MIC [2] of 2 mg/L (≈ 2.54 µM), an MIC [3] of over 64 mg/L and an MIC (S. aureus ATCC 29213) of 0.25 mg/L (≈ 0.318 µM). The MIC [4] was 0.25 mg/L (≈ 0.318 µM), the MIC (S. aureus MRSA: USA300) was 0.5 mg/L (≈ 0.635 µM) and the MIC (A. baumannii ATCC 19606) was 32 mg/L (≈ 40.7 µM). It also gave an MIC (K. pneumoniae ATCC 10031) of 4 mg/L (≈ 5.08 µM), an MIC (P. aeruginosa ATCC 27853) of over 64 mg/L and an MIC (P. aeruginosa MP-7 PAO1) of over 64 mg/L. It also gave an MIC [5] of 8 mg/L (≈ 10.2 µM), an MIC [6] of 64 mg/L (≈ 81.3 µM) and an MIC [7] of over 64 mg/L. The MIC [8] was 32 mg/L (≈ 40.7 µM) and the MIC [9] was over 64 mg/L.

`CC[C@H]1OC(=O)[C@H](C)C(=O)[C@H](C)[C@@H](O[C@@H]2OC(C)CC(N(C)C)C2O)[C@](C)(OC)C[C@@H](C)C(=O)[C@H](C)[C@H]2N(NCCCn3nnc4ccccc43)C(=O)O[C@]12C` (some centres unmarked) [FSM-140133] showed an MIC (E. coli ATCC 25922) of 16 mg/L (≈ 20.3 µM), an MIC [1] of over 64 mg/L and an MIC (E. coli MP-541 clinical) of 16 mg/L (≈ 20.3 µM). For the same compound, the MIC [2] was 4 mg/L (≈ 5.08 µM), the MIC [3] was over 64 mg/L and the MIC (S. aureus ATCC 29213) was 0.25 mg/L (≈ 0.318 µM). For the same compound, the MIC [4] was 0.25 mg/L (≈ 0.318 µM), the MIC (S. aureus MRSA: USA300) was 0.5 mg/L (≈ 0.635 µM) and the MIC (A. baumannii ATCC 19606) was 8 mg/L (≈ 10.2 µM). It also gave an MIC (K. pneumoniae ATCC 10031) of 4 mg/L (≈ 5.08 µM), an MIC (P. aeruginosa ATCC 27853) of 64 mg/L (≈ 81.3 µM) and an MIC (P. aeruginosa MP-7 PAO1) of 64 mg/L (≈ 81.3 µM). It also gave an MIC [5] of 8 mg/L (≈ 10.2 µM), an MIC [6] of 64 mg/L (≈ 81.3 µM) and an MIC [7] of over 64 mg/L. The MIC [8] was 64 mg/L (≈ 81.3 µM) and the MIC [9] was over 64 mg/L.

`CC[C@H]1OC(=O)[C@H](C)C(=O)[C@H](C)[C@@H](O[C@@H]2OC(C)CC(N(C)C)C2O)[C@](C)(OC)C[C@@H](C)C(=O)[C@H](C)[C@H]2N(NC/C=C/c3ccnc4ccccc34)C(=O)O[C@]12C` (some centres unmarked) [FSM-140135] showed an MIC (E. coli ATCC 25922) of over 64 mg/L, an MIC [1] of over 64 mg/L and an MIC (E. coli MP-541 clinical) of over 64 mg/L. It also gave an MIC [2] of 16 mg/L (≈ 20.1 µM), an MIC [3] of over 64 mg/L and an MIC (S. aureus ATCC 29213) of 2 mg/L (≈ 2.52 µM). The MIC [4] was 2 mg/L (≈ 2.52 µM), the MIC (S. aureus MRSA: USA300) was 2 mg/L (≈ 2.52 µM) and the MIC (A. baumannii ATCC 19606) was over 64 mg/L. The MIC (K. pneumoniae ATCC 10031) was 8 mg/L (≈ 10.1 µM), the MIC (P. aeruginosa ATCC 27853) was over 64 mg/L and the MIC (P. aeruginosa MP-7 PAO1) was over 64 mg/L. It also gave an MIC [5] of 32 mg/L (≈ 40.3 µM), an MIC [6] of over 64 mg/L and an MIC [7] of over 64 mg/L. For the same compound, the MIC [8] was over 64 mg/L and the MIC [9] was over 64 mg/L.
